Patent publication US20130150317A1, “COMPOUNDS FOR THE TREATMENT OF RENAL CELL CARCINOMA” (Myrovlytis Technology Ventures Limited, priority 2010, published 2013)
Entries after “also recorded” stand apart in the source; their conditions may differ. Like-named read-outs stand apart in the source and are kept apart here.

Columns and labels:
[1] = tested on: 786-O cells expressing wt VHL; assay: SRB growth inhibition in 786-O cells expressing wt VHL; format: cell-based; details: Homo sapiens, 786-0; SRB assay, 72 hours
Text: (§1) Human renal carcinoma of BHD origin cells UOK-257 (UOK-FLCN^−) and FLCN transfected UOK-257 cells UOK-FLCN^+ (Yang et al Cancer Genet Cytogenet. 2008 Jan. 15; 180(2):100-9) were provided by Dr Marston Linehan and Dr. Laura S Schmidt (Urologic Oncology Branch, Centre for Cancer Research, National Cancer Institute, National Institutes of Health, Bethesda, Md. 20892, USA). UOK-257 is the only RCC cell line that has been derived from a patient with BHD and harbours a germline FLCN frameshift mutation (c.1285dupC) (predicted, in the absence of nonsense mediated mRNA decay, to lead to premature protein truncation (p.His429ProfsX27) (Yang et al., Cancer Genet Cytogenet, 2008 Jan. 15; 180(2):100-9). We are not aware of any sporadic RCC cell lines with homozygous FLCN inactivation. FTC-133 cells were purchased from ECACC (Salisbury, United Kingdom). These cells are a non-RCC cell line derived from human thyroid carcinoma. 786-0 cells were available from the author's lab (Clifford et al., Hum Mol Genet. 2001 May 1; 10(10):1029-38). […]
(§2) The sensitivity of the cell lines to drug-induced cell growth inhibition was determined using the sulphorhodamine B assay (SRB) as described by Lu et al., Clin Cancer Res. 2001:7:2114-23. […] The absorbance per well was measured at 570 nm on a Victor X3 Multilabel Plate Reader (PerkinElmor, Beaconsfield, United Kingdom). […]

[2] = tested on: FTC-133 cells with FLCN expressed at low levels; assay: SRB growth inhibition in FTC-133 cells, low FLCN expression; format: cell-based; details: Homo sapiens, SRB assay
Text: as §1, §2

[3] = tested on: caspase3 in UOK257-FLCN^− cells; assay: Western blot of cellular caspase3 protein after mithramycin; format: cell-based, human; details: mithramycin 25, 50, 100, 200 nM, 48 hours
Procedure: Cellular protein expression in UOK Cells with/without FLCN expression in response to drug exposure was determined using total cell extracts at 48 h after treatment, according to standard procedures. Protein concentration was determined using DC protein assay kit according to the manufacturer's instructions (Bio-Rad Laboratories Ltd, Hertfordshire, United Kingdom). Twenty […] of protein from each sample was electrophoresed on 12.5% (w/v) SDS-PAGE gels and electroblotted on to nitrocellulose membrane (Amersham Pharmacia Biotech UK Ltd., Buckinghamshire, United Kingdom). Antibody against FLCN (a gift from Prof. Arnim Pause, Rosalind and Morris Goodman Cancer Centre Montreal, Canada), caspase3 (Cell Signalling Technology, Hertfordshire, United Kingdom), and actin (Sigma-Aldrich Company Ltd., Dorset, United Kingdom) were used. The signal was detected using the enhanced chemiluminescence (ECL+Plus, Amersham) system after addition of anti-mouse IgG-HRP conjugate (DAKO, Ely, United Kingdom).

[4] = tested on: UOK257-FLCN^− cells; details: 4×GI50 mithramycin alone
Procedure: At the end of the time course, media was carefully removed and cells were fixed in 85% ice-cold ethanol. After removal of ethanol, cells were incubated in the dark at 37° C. for 20 minutes in PBS buffers containing 0.1% Triton X-100, 100 mg/mL RNase A and 10 mg/mL Propidium iodide (PI). The 96-well plates were subsequently scanned using the Acumen eX3 cytometer (TTP LabTech).

[5] = tested on: caspase3/7 activity in UOK257-FLCN^− and UOK257-FLCN^+ cells; assay: Caspase-Glo 3/7 assay in UOK-257 cells with/without FLCN expression; format: cell-based, human
Procedure: (§3) The ability to induce caspase 3/7 activation after exposure to compounds was measured by Caspase-Glo 3/7 Assay (Promega, Southampton, United Kingdom) according to manufacturer's instruction. The cells were seeded and dosed as described in growth inhibition assay. At the end of incubation, 70 μl of medium was removed and 30 μl of assay reagent was added to the remaining medium. Additional one hour incubation with shaking was carried out at room temperature. The resultant luminescent light was measured in a Victor X3 Multilabel Plate Reader (PerkinElmer, Beaconsfield, United Kingdom). Cell viability after compound exposure was determined by CellTiter-Blue Cell Viability Assay (Promega, Southampton, the United Kingdom) according to manufacturer's instruction. At the end of drug treatment, 20 μl of reagent was added to the medium in 96 wells and the cells were incubated for additional 4 hours. The cell viability was measured by fluorescence with a 570 nm excitation and 590 nm emission set in a Victor X3 Multilabel Plate Reader (PerkinElmer, Beaconsfield, United Kingdom).
After 48 hrs incubation, with three concentration ranges for each drug, the capase3/7 activity was detected by amount of luminescence for each cell line. The ratio of caspase3/7 activity from UOK257-FLCN^− and UOK257-FLCN^+ were calculated and used as indicators for the ability of the individual compound to induce caspase3/7 activity to FLCN mutant cells.
These ratios were calculated and used as indicators for the sensitivity to mutant FLCN cells.

[6] = tested on: FTC-133 cells with FLCN expressed at high levels; assay: SRB growth inhibition in FTC-133 cells, high FLCN expression; format: cell-based; details: Homo sapiens, SRB assay
Text: as §1, §2

[7] = tested on: UOK257-FLCN^− and UOK257-FLCN^+ cells; assay: CellTiter-Blue cell viability assay in UOK-257 cells with/without FLCN expression; format: cell-based, human; details: 200 nM, 48 hrs
Procedure: as §3
These were calculated and used as indicators for the sensitivity to mutant FLCN cells. Cells were exposed continuously to the indicated concentrations of drugs for 48 hours. Values are the mean±SD from at least three experiments.

[8] = tested on: FTC-133 cells transfected with empty vector; assay: SRB growth inhibition in FTC-133 cells, empty vector; format: cell-based, human; details: for GI50: Homo sapiens; for differential sensitivity in FTC-133 cells with different levels of FLCN expression (in words): SRB assay
Text: Human renal carcinoma of BHD origin cells UOK-257 (UOK-FLCN^−) and FLCN transfected UOK-257 cells UOK-FLCN^+ (Yang et al Cancer Genet Cytogenet. 2008 Jan. 15; 180(2):100-9) were provided by Dr Marston Linehan and Dr. Laura S Schmidt (Urologic Oncology Branch, Centre for Cancer Research, National Cancer Institute, National Institutes of Health, Bethesda, Md. 20892, USA). UOK-257 is the only RCC cell line that has been derived from a patient with BHD and harbours a germline FLCN frameshift mutation (c.1285dupC) (predicted, in the absence of nonsense mediated mRNA decay, to lead to premature protein truncation (p.His429ProfsX27) (Yang et al., Cancer Genet Cytogenet, 2008 Jan. 15; 180(2):100-9). We are not aware of any sporadic RCC cell lines with homozygous FLCN inactivation. FTC-133 cells were purchased from ECACC (Salisbury, United Kingdom). These cells are a non-RCC cell line derived from human thyroid carcinoma. 786-0 cells were available from the author's lab (Clifford et al., Hum Mol Genet. 2001 May 1; 10(10):1029-38). 786-O is a kidney cancer cell line that harbours an inactivating VHL gene mutation (c.311delG p.G104fs*55). All cell lines were cultured in DMEM with supplement of 10% foetal bovine serum except for FTC-133 cells which were incubated in medium with DMEM and Hens (1:1).
The sensitivity of the cell lines to drug-induced cell growth inhibition was determined using the sulphorhodamine B assay (SRB) as described by Lu et al., Clin Cancer Res. 2001:7:2114-23. Briefly, adherent exponentially growing cells were seeded into 96-well plates at 3-5×10^3 cells/100 μl/well. […] The absorbance per well was measured at 570 nm on a Victor X3 Multilabel Plate Reader (PerkinElmor, Beaconsfield, United Kingdom).
(§4) A FLCN containing construct was introduced into parental FTC-133 cells and stably transfected cells were selected. SRB growth inhibition assay was carried out in cells transfected with empty vector and low FLCN and high FLCN expression.
as §4

CO[C@H](C(=O)[C@@H](O)[C@@H](C)O)C1Cc2cc3cc(OC4CC(OC5CC(O)C(O)C(C)O5)C(O)C(C)O4)c(C)c(O)c3c(O)c2C(=O)[C@H]1OC1CC(OC2CC(OC3CC(C)(O)C(O)C(C)O3)C(O)C(C)O2)C(O)C(C)O1 (some centres unmarked) [mithramycin, Mithramycin] showed a GI50 [1] of 299 ± 17 nM, a GI50 [2] of 38.7 ± 10.4 nM and a GI50 ([2]; 72 hours) of 38.7 ± 10.4 nM. For the same molecule, the “active forms of cleaved caspase3 (Western blot)” value [3] was “found at 100 and 200 nM, but not in low concentrations of mithramycin (25 and 50 nM)”, the “lengthening of the S and G2-M time” value [4] was 100% and the “induction of caspase 3/7 activity, FLCN-null versus FLCN-wild type cells (in words)” value [5] was “preferentially induced caspase 3/7 activity in UOK257 FLCN-null cells in a dose dependent manner; also recorded: Differential ability to induce caspase 3/7 activity”. For the same molecule, the “induction of caspase 3/7 activity, FLCN-null versus FLCN-wild type cells (in words)” value ([5]; listed as Mithramycin) was “preferentially induces caspase 3/7 activity in FLCN-null cells in a dose dependent manner”, the GI50 [6] was 35.3 ± 7.3 nM and the GI50 ([6]; 72 hours) was 35.3 ± 7.3 nM. For the same molecule, the “ratio of cell viability from UOK257-FLCN^+ and UOK257-FLCN^− (cell death)” value [7] was 2 fold, the GI50 ([8]; FTC-133, 72 h, read-out: GI50 in FTC-133 cells, empty vector) was 59.3 ± 8.9 nM and the GI50 ([8]; FTC-133, read-out: GI50 in FTC-133 cells, empty vector) was 59.3 ± 8.9 nM. For the same molecule, the “differential sensitivity in FTC-133 cells with different levels of FLCN expression (in words)” value [8] was “no apparent differential mithramycin sensitivity” and the “differential sensitivity in FTC-133 cells with different levels of FLCN expression (in words)” value ([8]; listed as Mithramycin) was “does not show genotypic selective growth inhibitory activity”.
